Earlier results on one compound are cited in patent publication US7645795B2, “Method for treating amyotrophic lateral sclerosis” (BodyBio, Inc, priority 2004, dated 2010).

This data set relates to ALS patients.

`Nc1nc2ccc(OC(F)(F)F)cc2s1` [riluzole]: the “Extension of lifespan of ALS patients” value was “approximately 3 months” and the Hepatic effect result is reported as “evokes hepatic stress upon elevation of liver enzymes”.
